Reference: publication PMC7180927, “Arylaminopropanone Derivatives as Potential Cholinesterase Inhibitors: Synthesis, Docking Study and Biological Evaluation” (Molecules, 2020)
Where two headings read alike, the source gives them in different places.

Tests used:
AChE (electric eel) = AChE (electric eel) (Electrophorus electricus, UniProt O42275); experiment: biochemical; conditions: for inhibition at 100 µM: read-out: AChE (%) percentage of inhibition
Method: (§1) The in vitro testing of ChEs inhibition was performed according to the modified Ellman’s method. […] The percentage of inhibition activity was defined for all compounds.
(§2) The in vitro testing of ChEs inhibition was performed on 96-well microplate reader, Synergy^TM HT, BioTek, Vinnoski, USA.
(§3) The method originally developed by Ellman was used with slight modifications. The measurement of AChE and BuChE inhibitory activity was performed in a 96-well microplate reader. 170 μL of 0.1 M phosphate buffer (pH 7.0), 20 μL of AChE (electric eel) or BuChE (equine serum) in phosphate solution (2.3 U/mL), 20 μL of the tested compound in methanol and 20 μL of 10 mM (5,5′-dithiobis(2-nitrobenzoic acid), DTNB, Ellman’s Reagent) were mixed and incubated at 37 °C for 15 min.
Then 20 μL of 7.5 mM acetylthiocholine iodide (ATCI)/butyrylthiocholine iodide (BTCI) were added. […] Each measurement was repeated five times (n = 5). There was prepared one set of mixtures as a control (Abscontrol), which contained an equal volume of methanol instead of the tested samples.
(§4) The percentage ability to inhibit AChE and BuChE at the concentration 100 µM was tested for all compounds. The inhibitory rates IR (%) were calculated according to the Equation (1). IR = [1 - (Abssample/Abscontrol)] × 100(1)

BuChE (equine serum) = target: T1, BuChE (equine serum) (Equus caballus, UniProt P81908); experiment: BuChE inhibition, modified Ellman's method; format: biochemical; conditions: for inhibition at 100 µM / BuChE (%) percentage of inhibition: mean ± SD (n = 5); for IC50: n = 3 per concentration
T1 construct: 20 μL of AChE (electric eel) or BuChE (equine serum) in phosphate solution (2.3 U/mL); from tissue; host or cells: equine serum
T1 sequence (P81908 whole entry): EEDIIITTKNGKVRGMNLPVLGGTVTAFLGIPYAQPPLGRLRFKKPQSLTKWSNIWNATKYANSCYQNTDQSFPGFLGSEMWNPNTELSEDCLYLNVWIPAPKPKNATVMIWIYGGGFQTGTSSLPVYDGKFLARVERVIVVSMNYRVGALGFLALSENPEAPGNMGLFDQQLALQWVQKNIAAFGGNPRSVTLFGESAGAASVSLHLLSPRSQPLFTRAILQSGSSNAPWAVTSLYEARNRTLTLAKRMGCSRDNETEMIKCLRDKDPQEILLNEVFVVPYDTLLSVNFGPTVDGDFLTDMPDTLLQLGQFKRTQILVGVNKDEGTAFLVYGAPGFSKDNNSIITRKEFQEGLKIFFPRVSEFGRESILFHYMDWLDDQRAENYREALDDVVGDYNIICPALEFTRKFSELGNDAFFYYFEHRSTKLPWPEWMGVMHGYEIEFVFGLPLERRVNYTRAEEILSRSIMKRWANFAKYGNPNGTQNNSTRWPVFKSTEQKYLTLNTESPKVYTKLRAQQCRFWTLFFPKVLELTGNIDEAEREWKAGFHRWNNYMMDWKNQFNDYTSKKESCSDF
Method: as §1, §2, §3
Then 20 μL of 7.5 mM acetylthiocholine iodide (ATCI)/butyrylthiocholine iodide (BTCI) were added. […] […] There was prepared one set of mixtures as a control (Abscontrol), which contained an equal volume of methanol instead of the tested samples.
as §4
The values were calculated by non-linear regression of the concentration-response curve using GraphPad Prism 5.0 software, according to the Equation (2):Y = Ymin + (Ymax − Ymin)/(1 + [(X^HillSlope)/(IC50^HillSlope)])(2)

[1] = at 100 µM, read-out: BuChE (%) percentage of inhibition
[2] = read-out: BuChE (%) percentage of inhibition, at 100 µM

Sequence of AChE (electric eel) (O42275 24-633): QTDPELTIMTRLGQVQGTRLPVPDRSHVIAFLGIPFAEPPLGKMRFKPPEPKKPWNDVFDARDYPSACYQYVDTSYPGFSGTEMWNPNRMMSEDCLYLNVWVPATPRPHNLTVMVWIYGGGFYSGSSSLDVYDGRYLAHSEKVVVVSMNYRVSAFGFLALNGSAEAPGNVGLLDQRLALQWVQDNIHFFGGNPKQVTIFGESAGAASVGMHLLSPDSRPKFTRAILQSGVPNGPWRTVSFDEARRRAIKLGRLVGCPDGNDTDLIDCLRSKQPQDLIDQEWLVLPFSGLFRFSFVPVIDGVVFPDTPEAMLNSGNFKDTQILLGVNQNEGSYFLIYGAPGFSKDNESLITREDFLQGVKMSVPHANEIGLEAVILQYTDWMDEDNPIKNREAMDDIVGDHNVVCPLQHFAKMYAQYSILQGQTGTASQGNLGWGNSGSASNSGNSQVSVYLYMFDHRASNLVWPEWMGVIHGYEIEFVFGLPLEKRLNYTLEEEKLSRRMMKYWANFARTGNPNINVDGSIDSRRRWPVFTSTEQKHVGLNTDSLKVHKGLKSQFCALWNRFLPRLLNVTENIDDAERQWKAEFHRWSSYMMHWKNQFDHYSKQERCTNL

| Compound | IC50 (AChE (electric eel)) | inhibition at 100 µM (AChE (electric eel); at 100 µM, mean ± SD (n = 5)) | inhibition at 100 µM (BuChE (equine serum); [1]) | IC50 (BuChE (equine serum)) | BuChE (%) percentage of inhibition (BuChE (equine serum); at 100 µM) | inhibition at 100 µM (BuChE (equine serum); [2]) | AChE (%) percentage of inhibition (AChE (electric eel); at 100 µM, mean ± SD (n = 5)) | inhibition at 100 µM (AChE (electric eel)) |
| --- | --- | --- | --- | --- | --- | --- | --- | --- |
| COC(=O)Nc1ccc(C(=O)CCN2CCCCC2)cc1 [Compound 1, 1-(3-{4-[(methoxycarbonyl)amino]phenyl}-3-oxopropyl)piperidin-1-ium chloride] | 12.7 µM | 74.1 ± 0.9% | 10 ± 0.8% | > 100 µM | – | – | – | – |
| CCOC(=O)Nc1ccc(C(=O)CCN2CCCCC2)cc1 [Compound 2, 1-(3-{4-[(ethoxycarbonyl)amino]phenyl}-3-oxopropyl)piperidin-1-ium chloride] | 8.58 µM | 77.8 ± 0.4% | 15.7 ± 1.9% | > 100 µM | – | – | – | – |
| CCCOC(=O)Nc1ccc(C(=O)CCN2CCCCC2)cc1 [Compound 3, 1-(3-oxo-3-{4-[(propoxycarbonyl)amino]phenyl}propyl)piperidin-1-ium chloride] | 6.57 µM | 79.4 ± 0.3% | 21 ± 2.5% | > 100 µM | – | – | – | – |
| CCOC(=O)Nc1ccc(C(=O)CCN2CCOCC2)cc1 [Compound 4, 4-(3-{4-[(ethoxycarbonyl)amino]phenyl}-3-oxopropyl)morpholin-4-ium chloride] | > 100 µM | 16.1 ± 4.2% | 17.8 ± 3.4% | > 100 µM | – | – | – | – |
| CCCOC(=O)Nc1ccc(C(=O)CCN2CCOCC2)cc1 [Compound 5, 4-(3-oxo-3-{4-[(propoxycarbonyl)amino]phenyl}propyl)morpholin-4-ium chloride] | > 100 µM | 25.9 ± 3.2% | 14.4 ± 2.4% | > 100 µM | – | – | – | – |
| CCOC(=O)Nc1ccc(C(=O)CCN(CC)CC)cc1 [Compound 6, (3-{4-[(ethoxycarbonyl)amino]phenyl}-3-oxopropyl)diethylazanium chloride] | > 100 µM | 42.2 ± 4.3% | 34.2 ± 2.6% | > 100 µM | – | – | – | – |
| CCCCN(C)CCC(=O)c1ccc(NC(=O)OC)cc1 [Compound 7, Butyl(3-{4-[(methoxycarbonyl)amino]phenyl}-3-oxopropyl)methylazanium chloride] | > 100 µM | 38 ± 4.2% | 20.4 ± 5.8% | > 100 µM | – | – | – | – |
| CCCCN(C)CCC(=O)c1ccc(NC(=O)OCC)cc1 [Compound 8, Butyl(3-{4-[(ethoxycarbonyl)amino]phenyl}-3-oxopropyl)methylazanium chloride] | > 100 µM | 23.5 ± 2.2% | 4.7 ± 3% | > 100 µM | – | – | – | – |
| CCCCN(C)CCC(=O)c1ccc(NC(=O)OCCC)cc1 [Compound 9, Butyl(methyl)(3-oxo-3-{4-[(propoxycarbonyl)amino]phenyl}propyl)azanium chloride] | > 100 µM | 44.5 ± 1.1% | 29 ± 2.9% | > 100 µM | – | – | – | – |
| CCCCN(CC)CCC(=O)c1ccc(NC(=O)OC)cc1 [Compound 10, Butyl(ethyl)(3-{4-[(methoxycarbonyl)amino]phenyl}-3-oxopropyl)azanium chloride] | > 100 µM | 23.6 ± 2.3% | 43.6 ± 3% | > 100 µM | – | – | – | – |
| CCCCN(CC)CCC(=O)c1ccc(NC(=O)OCC)cc1.Cl [Compound 11, Butyl(3-{4-[(ethoxycarbonyl)amino]phenyl}-3-oxopropyl)ethylazanium chloride] | – | 24.6 ± 1.9% | – | – | 51.0 ± 2.9% | > 50% | – | – |
| CCCCN(CC)CCC(=O)c1ccc(NC(=O)OCCC)cc1.Cl [Compound 12, Butyl(ethyl)(3-{4-[(propoxycarbonyl)amino]phenyl}-3-oxopropyl)azanium chloride] | > 100 µM | 38.4 ± 1.3% | – | > 100 µM | 51.1 ± 3.3% | > 50% | – | – |
| CCCCOC(=O)Nc1ccc(C(=O)CCN(CC)CCCC)cc1 [Compound 13, (3-{4-[(butoxycarbonyl)amino]phenyl}-3-oxopropyl)(butyl)ethylazanium chloride] | > 100 µM | 33.5 ± 3.4% | 48.7 ± 2.6% | > 100 µM | – | – | – | – |
| CCCN(C)CCC(=O)c1ccc(NC(=O)OC)cc1 [Compound 14, (3-{4-[(methoxycarbonyl)amino]phenyl}-3-oxopropyl)(methyl)propylazanium chloride] | > 100 µM | 42.2 ± 1.3% | 22.3 ± 4.6% | > 100 µM | – | – | – | – |
| CCCN(C)CCC(=O)c1ccc(NC(=O)OCC)cc1 [Compound 15, (3-{4-[(ethoxycarbonyl)amino]phenyl}-3-oxopropyl)(methyl)propylazanium chloride] | > 100 µM | 45.3 ± 3.4% | 36.8 ± 2.1% | > 100 µM | – | – | – | – |
| CCCCCN(C)CCC(=O)c1ccc(NC(=O)OCC)cc1.Cl [Compound 16, (3-{4-[(ethoxycarbonyl)amino]phenyl}-3-oxopropyl)(methyl)pentylazanium chloride] | > 100 µM | > 50% | 46.3 ± 2% | > 100 µM | – | – | 50.6 ± 1.8% | – |
| COc1ccc2c3c1O[C@H]1C[C@@H](O)C=C[C@@]31CCN(C)C2 [Galantamine, reference compound] | – | – | 62.1 ± 1.4% | – | – | – | – | – |
| CCN(C)C(=O)Oc1cccc([C@H](C)N(C)C)c1 [Rivastigmine, reference compound] | – | – | 72.9 ± 1.5% | – | – | – | – | 54.8 ± 4.4% |
